Read-outs that look alike come from different tables or passages of the source.

Series [1] has as its system pAktS473. Put plainly: PC3 cellular activity: pAktS473 (mTORC2) inhibition. The following applies: Homo sapiens, PC-3; average of 2 or more experiments; read-out: PC3 Cellular Activity pAkt IC50. The series is classed as cell-based.
In series [2] the test system is PC3 prostate cancer cell lines. In words: PC3 cellular activity: proliferation. Particulars: Homo sapiens, PC-3, read-out: PC3 Cellular Activity Prolif IC50.
The subject of series [3] is pS6. In words: PC3 cellular activity: pS6 (mTORC1) inhibition. The series is classed as cell-based. Particulars: Homo sapiens, PC-3; average of 2 or more experiments.
A further series has as its target mTOR (Homo sapiens, UniProt P42345). Put plainly: mTOR inhibition (Table 3). The series is classed as biochemical. Particulars: average of 2 or more experiments.
A short description of the next series: Oral bioavailability. Particulars: in vivo. Set-up: species or system rodent.
The next series concerns PC3 xenograft. The class given is in vivo.
The target of a further series is FMS (Homo sapiens, UniProt P07333). Put plainly: FMS concentration-response curve. The class given is biochemical.
Sequence of FMS (P07333 20-972, species assumed): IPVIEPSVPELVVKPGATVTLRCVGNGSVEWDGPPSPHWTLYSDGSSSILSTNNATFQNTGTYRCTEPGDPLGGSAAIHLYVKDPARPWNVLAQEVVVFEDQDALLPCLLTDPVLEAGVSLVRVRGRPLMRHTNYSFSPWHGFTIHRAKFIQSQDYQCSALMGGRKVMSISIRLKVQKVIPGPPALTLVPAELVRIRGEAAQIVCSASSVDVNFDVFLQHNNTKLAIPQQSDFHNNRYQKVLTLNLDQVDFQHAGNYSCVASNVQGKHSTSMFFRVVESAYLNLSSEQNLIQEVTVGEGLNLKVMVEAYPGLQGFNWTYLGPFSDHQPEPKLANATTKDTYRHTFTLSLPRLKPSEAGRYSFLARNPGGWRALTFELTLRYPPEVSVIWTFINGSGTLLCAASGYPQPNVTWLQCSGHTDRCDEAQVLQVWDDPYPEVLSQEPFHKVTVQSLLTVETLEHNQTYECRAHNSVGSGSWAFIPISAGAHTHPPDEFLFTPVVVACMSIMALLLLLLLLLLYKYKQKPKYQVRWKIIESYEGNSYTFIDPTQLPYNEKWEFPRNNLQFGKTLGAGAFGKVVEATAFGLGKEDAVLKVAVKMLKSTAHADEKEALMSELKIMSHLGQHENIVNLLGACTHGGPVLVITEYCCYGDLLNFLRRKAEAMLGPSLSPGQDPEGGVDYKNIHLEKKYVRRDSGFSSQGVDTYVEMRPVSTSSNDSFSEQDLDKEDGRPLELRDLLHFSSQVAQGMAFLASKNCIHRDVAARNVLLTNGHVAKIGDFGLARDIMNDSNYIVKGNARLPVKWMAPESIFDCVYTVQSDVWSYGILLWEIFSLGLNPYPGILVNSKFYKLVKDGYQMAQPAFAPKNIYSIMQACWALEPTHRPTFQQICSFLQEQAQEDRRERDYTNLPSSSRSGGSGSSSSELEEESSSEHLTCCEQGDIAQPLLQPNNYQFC
The target of the next series is 249 kinases. Put plainly: Single point kinase selectivity assay against 249 kinases. The series is classed as biochemical. Particulars: 10 μM.
The test system of series [4] is pS6. In words: Tumor pS6 after single dose of Compound 6 (PK/PD). Particulars: for inhibition at 30 mg/kg: Mus musculus, 30 mg/kg single dose. The class given is in vivo, mice.
Series [5] is described as follows: Compound 6 plasma and tumor levels (PK/PD). The series is classed as in vivo, mice. The following applies: 30 mg/kg single dose, by 24 h.
For series [6], the system named is pAktS473. Put plainly: Tumor pAktS473 after single dose of Compound 6 (PK/PD). The class given is in vivo, mice. The following applies: Mus musculus, 30 mg/kg single dose.
A further series deals with Akt(S473). Put plainly: Phospho-Akt(S473) in PC3 cell lysates, MSD. The class given is cell-based, human. The following applies: PC3 cells, data not shown. From the text: (§1) The direct substrate for TORC1 was 4E-BP 1(T46) and indirect downstream substrate was S6RP(S235/S236). The direct substrate for TORC2 was Akt(S473) and indirect downstream substrates measured were GSK3β(S9) and PRAS40(T246). Additionally, the phosphorylation status of Akt(T308), a phosphorylation site for PDK1 was monitored.
(§2) MSD® biomarker detection assays provide a rapid and convenient method for measuring the total and phosphorylated levels of protein targets within a single small volume sample. These assays are available in both single-plex and multiplex formats. In a single-plex assay, an antibody for a specific protein target is coated on one electrode (or spot) per well. […] MSD Read Buffer that provides the appropriate chemical environment for ECL is added and the plate is read using an MSD SECTOR™ Imager. […] The instrument measures intensity of the emitted light to afford a quantitative measure of the amount of phosphorylated Akt or S6RP present in the sample. […]
(§3) The assay plate was incubated with 150 μL of MSD Blocker A Solution for 1 hour with shaking at room temperature. […] Then 150 μL of 1×MSD Read Buffer T was added to each well. The plate was read on the SECTOR Imager plate reader. The Excel data was transferred to Activity Base and IC50 values were calculated.
(§4) All data was analyzed using XLfit from IDBS. […]

Series [7] is described as follows: Body weight in Compound 1 PC3 xenograft efficacy studies. The following applies: rapamycin 4 mg/kg, 3 weeks, data not shown. The series is classed as in vivo, SCID mice. The procedure:
The BID dose groups were dosed with a 10-hour separation between the morning and evening doses. […] At the end of each study, plasma and/or tumor samples were collected.
Initial body weights were recorded prior to the initiation of treatment using a digital scale. The percent body weight change during the course of the study was calculated using initial body weight measurements. Body weights of each animal were measured twice a week at the same time that tumor measurements were taken. Body weights were measured more frequently if significant decreases were noted during the course of the study.

The subject of another series is 4E-BP1(T46). In words: Phospho-4E-BP1(T46) in PC3 cell lysates, Luminex multiplex. The series is classed as cell-based, human. Particulars: PC3 cells, up to concentrations of 10 μM.
From the text: as §1
The multiplex Luminex assay format differs from conventional enzyme-linked immunosorbent assay (ELISA) in that the multiplex capture antibody is attached to a polystyrene bead whereas the ELISA capture antibody is attached to the microplate well. The use of the suspension bead-based technology enables the multiplexing capabilities of the Luminex assays. The xMAP® technology uses 5.6 micron polystyrene microspheres, which are internally dyed with red and infrared fluorophores of differing intensities. Each bead is given a unique number, or bead region, allowing differentiation of one bead from another. Beads covalently bound to different specific antibodies can be mixed in the same assay, utilizing a 96-well microplate format. At the completion of the sandwich immunoassay, beads can be read, using the Luminex 100™ or Luminex 200 detection system, in single-file by dual lasers for classification and quantification of each analyte. […]

For a further series, the system named is S6RP(S235/S236). In words: Phospho-S6RP(S235/S236) in PC3 cell lysates, MSD. The class given is cell-based, human. The following applies: Homo sapiens, PC-3, 1 h, PC3 cells, 1 hour; two values; read-out: IC50 for inhibition of S6RP(S235/S236) phosphorylation.
From the text: as §1, §2, §3, §4

In the case of `O=c1[nH]c2ncc(-c3ccc(-c4nc[nH]n4)cc3)nc2n1CCC1CCOCC1` [Compound 3], the IC50 with pAktS473 [1] amounted to 18 nM; in [2], 224 nM; with pS6 [3] it was 40 nM; on mTOR it was 2 nM. Moreover, the oral bioavailability result in “Oral bioavailability” is given as “poor oral bioavailability”.

Regarding `O=C1CN(CCC2CCOCC2)c2nc(-c3ccc(-c4nc[nH]n4)cc3)cnc2N1` [Compound 4], the IC50 in series [2] came to 148 nM. For the same compound, the oral bioavailability result in the series “Oral bioavailability” is reported as “poor oral bioavailability”.

Regarding `CC(C)(O)c1ccc(-c2cnc3[nH]c(=O)n(CC4CCOCC4)c3n2)cn1` [Compound 5], the IC50 was 2550 nM with pAktS473 [1], 4180 nM in [2], 2410 nM in the series on pS6 [3] and 176 nM on mTOR.

For orientation: inhibition means the drop in the measured response relative to a control, in per cent. A lower inhibition goes with a response near the control. For `CC(C)(O)c1ccc(-c2cnc3c(n2)N(CC2CCOCC2)CC(=O)N3)cn1` [Compound 6], the “tumor volume inhibition compared to vehicle control” value worked out at 18% in the series with PC3 xenograft (10 mg/kg oral once daily), 63% with PC3 xenograft (25 mg/kg oral once daily) and 84% in the series with PC3 xenograft (50 mg/kg oral once daily). Further, in the series on PC3 xenograft (all dose levels and schedules, 3 weeks of treatment), the tolerability entry is recorded as “well tolerated”. In addition, the PC3 tumor growth entry in the series with PC3 xenograft (oral, once or twice daily or every second day) is given as “significantly inhibited PC3 tumor growth”. Further, the IC50 against FMS was determined as 2700 nM. For the same compound, at 249 kinases, the “kinases other than mTOR inhibited >80%” value is listed as “only one kinase other than mTOR was inhibited >80%”. Also, in the series on pS6 [4] (100 mg/kg single dose, through 24 hours), the “biomarker (pS6, pAktS473) inhibition in tumor” value is given as “full biomarker inhibition”. Further, the inhibition at 30 mg/kg with pS6 [4] (2-8 h) is 87 to 93%; with pS6 [4] (24 h), 43%; in the series with pAktS473 [6] (2-8 h) it was 53 to 77%; with pAktS473 [6] (24 h) it was 28%. Moreover, in series [5], the “plasma and tumor level of compound” value is “almost completely cleared”. Further, in the series “Oral bioavailability”, the oral bioavailability result is “excellent oral bioavailablity”.

Consider `CO[C@H]1C[C@@H]2CC[C@@H](C)[C@@](O)(O2)C(=O)C(=O)N2CCCC[C@H]2C(=O)O[C@H]([C@H](C)C[C@@H]2CC[C@@H](O)[C@H](OC)C2)CC(=O)[C@H](C)/C=C(\C)[C@@H](O)[C@@H](OC)C(=O)[C@H](C)C[C@H](C)/C=C/C=C/C=C/1C` [rapamycin, reference compound], for which, in the series with Akt(S473), the “inhibition of Akt(S473) phosphorylation” value is given as “did not inhibit”. Moreover, in series [7], the “change in body weight” value was “No significant change”. Further, the “inhibition of 4E-BP1(T46) phosphorylation” value in the series on 4E-BP1(T46) is given as “not inhibited”. For the same compound, the IC50 in the series on S6RP(S235/S236) came to 0.019 nM.

For the origin of these results see patent US20140113904A1, “TREATMENT OF CANCER WITH TOR KINASE INHIBITORS” (SIGNAL PHARMACEUTICALS, LLC, priority 2012, published 2014).
